Results: patent US9353094B2, “Substituted quinoxalines as kinase inhibitors” (BOARD OF REGENTS OF THE UNIVERSITY OF NEBRASKA, priority 2010, dated 2016)

What was measured:
Assay in all cases: Cell growth inhibition assay (alamar blue)
Format in all cases: cell-based
[1] = tested on: human breast MDA-MB-231 tumor cell line; conditions: MDA-MB-231, 20 μM, 72 h
Description: (§1) The compounds were screened in a growth inhibition assay at 20 μM over a 72 h period in a panel of cancer cell lines (lung-A549; pancreatic-Aspc1; colon-HT29; breast-MDAMB231; prostate-PC3; ovarian-SKOV3 and bone-U2OS) and the results are summarized in Table 2. […] This size effect was also observed with the urea compounds from the secondary amine (6j vs. 6l and 6k vs. 6m).
(§2) Cell Growth Inhibition Assay. Human lung A549, human pancreatic AsPC1, human colorectal HT-29, human breast MDA-MB-231, human prostate PC3, human ovarian SKOV3, and human osteosarcoma U2OS tumor cell lines were cultured in basal media containing 10% FBS and maintained in a 37° C. incubator with 5% CO2. All compounds were screened in 96 well microtiter plate format. In general, each cell line was plated at optimal assay density in 95 μl of propagation media in 96 well plates and incubated overnight. The next day, a standard alamar blue assay was performed (see below) on representative wells of each cell line for a Tz calculation. Subsequently, cells were treated in duplicate with a 5 μl volume of either vehicle only, positive controls etoposide and taxol, or test compounds at 20 μM (highest soluble compound concentration). The treated cells were incubated for 72 h and then assayed for growth by alamar blue assay. Briefly, 10 μl of reagent was added to each well and the plates returned to 37° C. After 3 h, fluorescence at 544ex/590em was measured using a SpectraMax M5 (Molecular Devices) plate reader. Growth is represented as a percentage of the control cells that were treated with vehicle only and % growth inhibition was determined using the NCI algorithm: Tz=number of untreated cells at zero time, C=Number of control cells at 72 h time, and T=number of compound treated cells at 72 h time; 100*([T−Tz]/[C−Tz]).

[2] = tested on: human colorectal HT-29 tumor cell line; conditions: HT29, 20 μM, 72 h
Description: as §1, §2

[3] = tested on: human lung A549 tumor cell line; conditions: A549, 20 μM, 72 h
Description: as §1, §2

[4] = tested on: human prostate PC3 tumor cell line; conditions: PC3, 20 μM, 72 h
Description: as §1, §2

[5] = tested on: human pancreatic AsPC1 tumor cell line; conditions: AsPC1, 20 μM, 72 h
Description: as §1, §2

[6] = tested on: human osteosarcoma U2OS tumor cell line; conditions: 72 h
Description: as §1, §2

[7] = tested on: human ovarian SKOV3 tumor cell line; conditions: SKOV3, 20 μM, 72 h
Description: as §1, §2

Row | Compound | % Growth inhibition at 20 μM [1] | % Growth inhibition at 20 μM [2] | % Growth inhibition at 20 μM [3] | % Growth inhibition at 20 μM [4] | % Growth inhibition at 20 μM [5] | % Growth inhibition at 20 μM [6] | % Growth inhibition at 20 μM [7]
1 | Cc1nc2ccc(NC(=O)N3CCCCC3)cc2nc1C [6l] | Inactive | Inactive | Inactive | Inactive | Inactive | Inactive | Inactive
2 | O=C(Nc1ccccc1)Nc1ccc2nc(-c3ccccc3)c(-c3ccccc3)nc2c1 [5h] | Inactive | Inactive | Inactive | Inactive | Inactive | Inactive | Inactive
3 | O=C(Nc1ccc2nc(-c3ccccc3)c(-c3ccccc3)nc2c1)N1CCCC1 [6i] | 16.7 ± 3.9% | Inactive | 11.0 ± 1.3% | 56.9 ± 2.7% | 29.4 ± 9.8% | 54.2 ± 2.2% | 18.5 ± 4.3%
4 | S=C(Nc1ccccc1)Nc1ccc2nc(-c3ccccc3)c(-c3ccccc3)nc2c1 [6c] | Inactive | Inactive | Inactive | Inactive | Inactive | Inactive | Inactive
5 | O=C(Nc1ccc(F)cc1)Nc1ccc2nc(-c3ccco3)c(-c3ccco3)nc2c1 [7a] | 38.4 ± 2.7% | 74.2 ± 5.2% | >100% | 90.7 ± 4.1% | >100% | 55.6 ± 6.6% | Inactive
6 | CC(=O)Nc1ccc2nc(-c3ccccc3)c(-c3ccccc3)nc2c1 [5d] | Inactive | Inactive | Inactive | Inactive | Inactive | Inactive | Inactive
7 | CC(=O)Nc1ccc2nc(-c3cccs3)c(-c3cccs3)nc2c1 [5c] | Inactive | Inactive | Inactive | Inactive | Inactive | Inactive | Inactive
8 | O=C(Nc1ccc(-c2ccccc2)cc1)Nc1ccc2nc(-c3ccco3)c(-c3ccco3)nc2c1 [7d] | 50.2 ± 8.9% | 72.4 ± 7.6% | 13.8 ± 9.8% | 88.5 ± 1.9% | Inactive | 46.9 ± 7.4% | Inactive
9 | Cc1nc2ccc(NC(=O)N3CCC(Cc4ccccc4)CC3)cc2nc1C [6j] | 12.4 ± 5.0% | 16.3 ± 10.1% | 40.3 ± 1.9% | 30.6 ± 11.6% | Inactive | 33.5 ± 0.4% | 8.9 ± 5.1%
10 | O=[N+]([O-])c1ccc(NC(=S)Nc2ccc3nc(-c4cccs4)c(-c4cccs4)nc3c2)cc1 [6e] | 53.3 ± 7.2% | 23.9 ± 27.8% | Inactive | 19.5 ± 37.4% | Inactive | 50.6 ± 3.9% | Inactive
